# Experimental data from US12419309B2, “Chemical composition for seed treatment” (Yara UK Limited, priority 2019, dated 2025).
# Test system: seeds of leguminous crops
# Experiment: Liquid composition coated on seeds of leguminous crops, dried and sowed in soil
# Assay type: in vivo
# Settings: monoethanolamine as component of the composition
# Source text: The liquid composition as disclosed herein was coated on seeds of leguminous crops and the seeds were dried and sowed in soil. The germination rate was increased as well as the number of nodules, the mass of roots and the amount of dry matter in the shoots.
smiles,measurement,value
NCCO [Monoethanolamine],Effect on the growth of nodules,no detrimental effect
